Laboratory results from the NIST ThermoML archive (doi:10.1021/acs.jced.9b00436).
“And” between values parts separate entries of the source, which are not always exact repeats. Identical values can stand only once. ± gives the expanded uncertainty stated by the source.

Legend:
[1] = an = ratio of the nth substance listed; conditions: 100 kPa, Liquid; for viscosity: Falling or rolling sphere viscometry; for speed of sound: Frequency=5 MHz, Single path-length method; for mass density: Vibrating tube method
[2] = 100 kPa, Liquid, Frequency=5 MHz, Single path-length method
[3] = xn = mol fraction of the nth substance listed; conditions: 308 K; 100 kPa; Liquid; Frequency=5 MHz; Single path-length method; x2 = 0.333

## C[N+](C)(C)CCO.[Cl-] [choline chloride] + OCC(O)CO
[1]; 293 K, a2 = 2
  viscosity: 473 ± 190 mPa·s
  speed of sound: 1987 ± 40 m/s
  mass density: 1194.3 ± 24 kg/m3
[1]; 298 K, a2 = 2
  viscosity: 364.4 ± 150 mPa·s
  speed of sound: 1975 ± 40 m/s
  mass density: 1191.7 ± 24 kg/m3
[1]; 303 K, a2 = 2
  viscosity: 246.8 ± 100 mPa·s
  speed of sound: 1963 ± 39 m/s
  mass density: 1188.5 ± 24 kg/m3
[1]; 308 K, a2 = 2
  viscosity: 193.8 ± 78 mPa·s
  speed of sound: 1952 ± 39 m/s
  mass density: 1185.5 ± 24 kg/m3
[1]; 313 K, a2 = 2
  viscosity: 133.4 ± 54 mPa·s
  speed of sound: 1941 ± 39 m/s
  mass density: 1182.7 ± 24 kg/m3
[1]; 318 K, a2 = 2
  viscosity: 110.4 ± 44 mPa·s
  speed of sound: 1932 ± 39 m/s
  mass density: 1179.3 ± 24 kg/m3
[1]; 323 K, a2 = 2
  viscosity: 81.6 ± 33 mPa·s
  speed of sound: 1923 ± 38 m/s
  mass density: 1177 ± 24 kg/m3
[1]; 328 K, a2 = 2
  viscosity: 70.2 ± 28 mPa·s
  speed of sound: 1910 ± 38 m/s
  mass density: 1173.1 ± 24 kg/m3
[1]; 333 K, a2 = 2
  viscosity: 53.8 ± 22 mPa·s
  speed of sound: 1900 ± 38 m/s
  mass density: 1171.3 ± 23 kg/m3

## C[N+](C)(C)CCO.[Cl-] [choline chloride] + OCCO
[1]; 293 K, a2 = 2
  viscosity: 50 ± 20 mPa·s
  speed of sound: 1896 ± 38 m/s
  mass density: 1117.1 ± 22 kg/m3
[1]; 298 K, a2 = 2
  viscosity: 40.4 ± 16 mPa·s
  speed of sound: 1882 ± 38 m/s
  mass density: 1114.5 ± 22 kg/m3
[1]; 303 K, a2 = 2
  viscosity: 33.6 ± 13 mPa·s
  speed of sound: 1871 ± 37 m/s
  mass density: 1111.4 ± 22 kg/m3
[1]; 308 K, a2 = 2
  viscosity: 27.9 ± 11 mPa·s
  speed of sound: 1860 ± 37 m/s
  mass density: 1108.6 ± 22 kg/m3
[1]; 313 K, a2 = 2
  viscosity: 23.6 ± 9.4 mPa·s
  speed of sound: 1848 ± 37 m/s
  mass density: 1105.7 ± 22 kg/m3
[1]; 318 K, a2 = 2
  viscosity: 19.9 ± 8 mPa·s
  speed of sound: 1837 ± 37 m/s
  mass density: 1102.6 ± 22 kg/m3
[1]; 323 K, a2 = 2
  viscosity: 17.2 ± 6.9 mPa·s
  speed of sound: 1826 ± 37 m/s
  mass density: 1100.1 ± 22 kg/m3
[1]; 328 K, a2 = 2
  viscosity: 14.6 ± 5.8 mPa·s
  speed of sound: 1813 ± 36 m/s
  mass density: 1096.7 ± 22 kg/m3
[1]; 333 K, a2 = 2
  viscosity: 12.8 ± 5.1 mPa·s
  speed of sound: 1802 ± 36 m/s
  mass density: 1094.7 ± 22 kg/m3

## CCCCCCCCCC(=O)O [decanoic acid] + CCCCCCCCCCCCCC[P+](CCCCCC)(CCCCCC)CCCCCC.[Cl-]
[1]; 293 K, a1 = 2
  viscosity: 346.3 ± 140 mPa·s
  speed of sound: 1437 ± 29 m/s
  mass density: 898.5 ± 18 kg/m3
[1]; 298 K, a1 = 2
  viscosity: 260.5 ± 110 mPa·s
  speed of sound: 1418 ± 29 m/s
  mass density: 895.4 ± 18 kg/m3
[1]; 303 K, a1 = 2
  viscosity: 197.8 ± 80 mPa·s
  speed of sound: 1402 ± 28 m/s
  mass density: 893.2 ± 18 kg/m3
[1]; 308 K, a1 = 2
  viscosity: 151.6 ± 61 mPa·s
  speed of sound: 1384 ± 28 m/s
  mass density: 888.6 ± 18 kg/m3
[1]; 313 K, a1 = 2
  viscosity: 117.9 ± 47 mPa·s
  speed of sound: 1366 ± 28 m/s
  mass density: 885.4 ± 18 kg/m3
[1]; 318 K, a1 = 2
  viscosity: 93.7 ± 38 mPa·s
  speed of sound: 1349 ± 27 m/s
  mass density: 881.9 ± 18 kg/m3
[1]; 323 K, a1 = 2
  viscosity: 76 ± 30 mPa·s
  speed of sound: 1333 ± 27 m/s
  mass density: 879.1 ± 18 kg/m3
[1]; 328 K, a1 = 2
  viscosity: 62.8 ± 25 mPa·s
  speed of sound: 1314 ± 27 m/s
  mass density: 877.1 ± 18 kg/m3
[1]; 333 K, a1 = 2
  viscosity: 52.8 ± 21 mPa·s
  speed of sound: 1303 ± 26 m/s
  mass density: 874.9 ± 18 kg/m3

## CCCCCCCCCCCCCCCC [hexadecane]
[2]; 293 K
  speed of sound: 1356 ± 27 m/s
[2]; 298 K
  speed of sound: 1340 ± 27 m/s
[2]; 303 K
  speed of sound: 1325 ± 27 m/s
[2]; 313 K
  speed of sound: 1287 ± 26 m/s
[2]; 318 K
  speed of sound: 1268 ± 25 m/s
[2]; 323 K
  speed of sound: 1248 ± 25 m/s
[2]; 328 K
  speed of sound: 1227 ± 25 m/s
[2]; 333 K
  speed of sound: 1210 ± 24 m/s

## CCCCCCCC[N+](C)(CCCCCCCC)CCCCCCCC.[Br-] [methyltrioctylammonium bromide] + CCCCCCCCCC(=O)O
[1]; 293 K, a2 = 2
  viscosity: 806 ± 330 mPa·s
  speed of sound: 1406 ± 28 m/s
  mass density: 945.4 ± 19 kg/m3
[1]; 298 K, a2 = 2
  viscosity: 572.6 ± 230 mPa·s
  speed of sound: 1393 ± 28 m/s
  mass density: 942.2 ± 19 kg/m3
[1]; 303 K, a2 = 2
  viscosity: 411.4 ± 170 mPa·s
  speed of sound: 1375 ± 28 m/s
  mass density: 939.9 ± 19 kg/m3
[1]; 308 K, a2 = 2
  viscosity: 305.2 ± 120 mPa·s
  speed of sound: 1357 ± 27 m/s
  mass density: 935.2 ± 19 kg/m3
[1]; 313 K, a2 = 2
  viscosity: 226.2 ± 91 mPa·s
  speed of sound: 1341 ± 27 m/s
  mass density: 931.9 ± 19 kg/m3
[1]; 318 K, a2 = 2
  viscosity: 171.5 ± 69 mPa·s
  speed of sound: 1326 ± 27 m/s
  mass density: 928.3 ± 19 kg/m3
[1]; 323 K, a2 = 2
  viscosity: 132.4 ± 53 mPa·s
  speed of sound: 1312 ± 26 m/s
  mass density: 925.3 ± 18 kg/m3
[1]; 328 K, a2 = 2
  viscosity: 104.5 ± 42 mPa·s
  speed of sound: 1297 ± 26 m/s
  mass density: 923.1 ± 18 kg/m3
[1]; 333 K, a2 = 2
  viscosity: 83.7 ± 34 mPa·s
  speed of sound: 1283 ± 26 m/s
  mass density: 920.8 ± 18 kg/m3

## O=C(O)CC(=O)O [propanedioic acid] + C[N+](C)(C)CCO.[Cl-]
[1]; 293 K, a1 = 1
  mass density: 1185.1 ± 24 kg/m3
[1]; 298 K, a1 = 1
  mass density: 1182.1 ± 24 kg/m3
[1]; 303 K, a1 = 2
  viscosity: 1128.6 ± 460 mPa·s
  speed of sound: 1876 ± 38 m/s
[1]; 303 K, a1 = 1
  mass density: 1178.6 ± 24 kg/m3
[1]; 308 K, a1 = 2
  viscosity: 812.9 ± 330 mPa·s
  speed of sound: 1863 ± 37 m/s
[1]; 308 K, a1 = 1
  mass density: 1175.6 ± 24 kg/m3
[1]; 313 K, a1 = 2
  viscosity: 597.3 ± 240 mPa·s
  speed of sound: 1851 ± 37 m/s
[1]; 313 K, a1 = 1
  mass density: 1172.3 ± 24 kg/m3
[1]; 318 K, a1 = 2
  viscosity: 446.1 ± 180 mPa·s
  speed of sound: 1838 ± 37 m/s
[1]; 318 K, a1 = 1
  mass density: 1169.1 ± 23 kg/m3
[1]; 323 K, a1 = 2
  viscosity: 342.3 ± 140 mPa·s
  speed of sound: 1825 ± 37 m/s
[1]; 323 K, a1 = 1
  mass density: 1166 ± 23 kg/m3
[1]; 328 K, a1 = 2
  speed of sound: 1812 ± 36 m/s
[1]; 328 K, a1 = 1
  mass density: 1162.7 ± 23 kg/m3
[1]; 333 K, a1 = 2
  speed of sound: 1799 ± 36 m/s
[1]; 333 K, a1 = 1
  mass density: 1160.3 ± 23 kg/m3

## CCCCCCCC[N+](CCCCCCCC)(CCCCCCCC)CCCCCCCC.[Br-] [tetraoctylammonium bromide] + CCCCCCCCCC(=O)O
[1]; 293 K, a2 = 2
  viscosity: 908.9 ± 370 mPa·s
  speed of sound: 1416 ± 28 m/s
  mass density: 933.7 ± 19 kg/m3
[1]; 298 K, a2 = 2
  viscosity: 648 ± 260 mPa·s
  speed of sound: 1402 ± 28 m/s
  mass density: 930.6 ± 19 kg/m3
[1]; 303 K, a2 = 2
  viscosity: 472 ± 190 mPa·s
  speed of sound: 1382 ± 28 m/s
  mass density: 928.4 ± 19 kg/m3
[1]; 308 K, a2 = 2
  viscosity: 350 ± 140 mPa·s
  speed of sound: 1365 ± 27 m/s
  mass density: 923.7 ± 18 kg/m3
[1]; 313 K, a2 = 2
  viscosity: 264.3 ± 110 mPa·s
  speed of sound: 1347 ± 27 m/s
  mass density: 920.5 ± 18 kg/m3
[1]; 318 K, a2 = 2
  viscosity: 201.1 ± 81 mPa·s
  speed of sound: 1331 ± 27 m/s
  mass density: 916.9 ± 18 kg/m3
[1]; 323 K, a2 = 2
  viscosity: 156.9 ± 63 mPa·s
  speed of sound: 1317 ± 26 m/s
  mass density: 913.9 ± 18 kg/m3
[1]; 328 K, a2 = 2
  viscosity: 123.4 ± 50 mPa·s
  speed of sound: 1301 ± 26 m/s
  mass density: 911.8 ± 18 kg/m3
[1]; 333 K, a2 = 2
  viscosity: 98.4 ± 39 mPa·s
  speed of sound: 1287 ± 26 m/s
  mass density: 909.5 ± 18 kg/m3

## NC(N)=O [urea] + C[N+](C)(C)CCO.[Cl-]
[1]; 293 K, a1 = 2
  viscosity: 1372 ± 570 mPa·s
  speed of sound: 2045 ± 41 m/s
  mass density: 1200.1 ± 24 kg/m3
[1]; 298 K, a1 = 2
  viscosity: 985.1 ± 400 mPa·s
  speed of sound: 2035 ± 41 m/s
  mass density: 1198.1 ± 24 kg/m3
[1]; 303 K, a1 = 2
  viscosity: 527.3 ± 210 mPa·s
  speed of sound: 2027 ± 41 m/s
  mass density: 1194.5 ± 24 kg/m3
[1]; 308 K, a1 = 2
  viscosity: 397.2 ± 160 mPa·s
  speed of sound: 2020 ± 40 m/s and 2018 ± 40 m/s
  mass density: 1191.7 ± 24 kg/m3
[1]; 313 K, a1 = 2
  viscosity: 238.1 ± 96 mPa·s
  speed of sound: 2009 ± 40 m/s
  mass density: 1188.7 ± 24 kg/m3
[1]; 318 K, a1 = 2
  viscosity: 181.6 ± 73 mPa·s
  speed of sound: 2002 ± 40 m/s
  mass density: 1185.5 ± 24 kg/m3
[1]; 323 K, a1 = 2
  viscosity: 119.8 ± 48 mPa·s
  speed of sound: 1992 ± 40 m/s
  mass density: 1183.1 ± 24 kg/m3
[1]; 328 K, a1 = 2
  viscosity: 98.2 ± 39 mPa·s
  speed of sound: 1983 ± 40 m/s
  mass density: 1179.2 ± 24 kg/m3
[1]; 333 K, a1 = 2
  viscosity: 68.6 ± 28 mPa·s
  speed of sound: 1976 ± 40 m/s
  mass density: 1177.3 ± 24 kg/m3
[3]
  speed of sound: 2016 ± 40 m/s

## O [water]
[2]; 298 K
  speed of sound: 1501 ± 30 m/s
[2]; 303 K
  speed of sound: 1511.5 ± 30 m/s
[2]; 313 K
  speed of sound: 1527.5 ± 31 m/s
[2]; 318 K
  speed of sound: 1535 ± 31 m/s
[2]; 323 K
  speed of sound: 1542 ± 31 m/s
[2]; 328 K
  speed of sound: 1547 ± 31 m/s
[2]; 333 K
  speed of sound: 1550 ± 31 m/s
